From publication PMC7714403 (JCI Insight, 2020)
Where two headings read alike, the source gives them in different places.

How the values were obtained:
JAK3 = target: T1, JAK3 (Homo sapiens, UniProt P52333); assay: KdELECT binding assay
T1 construct: purchased Eurofins DiscoverX

TYK2 = target: T2, TYK2 (Homo sapiens, UniProt P29597); assay: KdELECT binding assay
T2 construct: purchased Eurofins DiscoverX

OCI-AML3 cells = assay: Viability assay; format: cell-based; conditions: Homo sapiens, OCI-AML-3, read-out: IC50 viability
Procedure: Drug treatments were carried out for 72 hours. Details are provided in the Supplemental Methods.

AMPKa1, AMPKa2 = assay: KiNativ, OCI cells live cell; format: cell-based, human
AurA, AurB, AurC = assay: KiNativ, OCI cells live cell; format: cell-based, human; conditions: labeling site ATP Loop, peptide GKFGNVYLAR
AurB = AurB (Homo sapiens, UniProt Q96GD4); assay: KiNativ, OCI cells live cell; format: cell-based; conditions: 2 h, labeling site Lys1, peptide […]
BRAF = BRAF (Homo sapiens, UniProt P15056); assay: KiNativ, OCI cells live cell; format: cell-based; conditions: 2 h, labeling site Lys2, peptide […]
CCRK = CCRK (Homo sapiens, UniProt Q8IZL9); assay: KiNativ, OCI cells live cell; format: cell-based; conditions: 2 h, labeling site Lys2, peptide […]
CDK4 = CDK4 (Homo sapiens, UniProt P11802); assay: KiNativ, OCI cells live cell; format: cell-based; conditions: 2 h, labeling site Lys2, peptide […]
CDK5 = CDK5 (Homo sapiens, UniProt Q00535); assay: KiNativ, OCI cells live cell; format: cell-based; conditions: 2 h
CHED = CHED (Homo sapiens, UniProt Q14004); assay: KiNativ, OCI cells live cell; format: cell-based; conditions: labeling site Lys2, peptide DIKCSNILLNNR
IRAK2 = IRAK2 (Homo sapiens, UniProt O43187); assay: KiNativ, OCI cells live cell; format: cell-based; conditions: 2 h, labeling site Lys1, peptide […]
LYN = LYN (Homo sapiens, UniProt P07948); assay: KiNativ, OCI cells live cell; format: cell-based; conditions: 2 h
MAP3K2 = MAP3K2 (Homo sapiens, UniProt Q9Y2U5); assay: KiNativ, OCI cells live cell; format: cell-based; conditions: 2 h, labeling site Lys1, peptide […]
MAPKAPK2, MAPKAPK3 = assay: KiNativ, OCI cells live cell; format: cell-based, human; conditions: labeling site Lys2, peptide DVKPENLLYTSK
MAPKAPK3 = MAPKAPK3 (Homo sapiens, UniProt Q16644); assay: KiNativ, OCI cells live cell; format: cell-based; conditions: 2 h, labeling site ATP Loop, peptide […]
[1] = tested on: MSK1 domain1, MSK2 domain1; assay: KiNativ, OCI cells live cell; format: cell-based, human; conditions: labeling site ATP Loop, peptide VLGTGAYGKVFLVR
p70S6Kb = p70S6Kb (Homo sapiens, UniProt Q9UBS0); assay: KiNativ, OCI cells live cell; format: cell-based; conditions: 2 h
STLK5 = target: T3, STLK5 (Homo sapiens, UniProt Q7RTN6); assay: KiNativ, OCI cells live cell; format: cell-based; conditions: 2 h, labeling site Lys2, peptide […]
T3 sequence (Q7RTN6 1-431): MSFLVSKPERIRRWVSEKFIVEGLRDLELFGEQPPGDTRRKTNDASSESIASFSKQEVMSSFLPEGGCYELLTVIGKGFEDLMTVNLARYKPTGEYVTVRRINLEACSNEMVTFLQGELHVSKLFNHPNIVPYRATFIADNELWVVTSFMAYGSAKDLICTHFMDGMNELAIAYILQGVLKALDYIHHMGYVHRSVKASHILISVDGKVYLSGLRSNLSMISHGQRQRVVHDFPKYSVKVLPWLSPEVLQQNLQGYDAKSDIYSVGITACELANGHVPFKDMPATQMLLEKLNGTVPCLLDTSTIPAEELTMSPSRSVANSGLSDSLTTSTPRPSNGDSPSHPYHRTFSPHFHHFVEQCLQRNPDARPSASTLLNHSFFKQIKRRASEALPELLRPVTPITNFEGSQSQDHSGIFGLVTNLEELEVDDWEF

TAO2 = TAO2 (Homo sapiens, UniProt Q9UL54); assay: KiNativ, OCI cells live cell; format: cell-based; conditions: 2 h, labeling site Lys2, peptide […]
TLK2 = TLK2 (Homo sapiens, UniProt Q86UE8); assay: KiNativ, OCI cells live cell; format: cell-based; conditions: 2 h
TYK2 domain2 = target: T4, TYK2 domain2 (Homo sapiens, UniProt P29597); assay: KiNativ, OCI cells live cell; format: cell-based
T4 construct: TYK2 domain2

ZAP70 = target: T5, ZAP70 (Homo sapiens, UniProt P43403); assay: KiNativ, OCI cells live cell; format: cell-based; conditions: 2 h, labeling site Activation Loop
T5 sequence (P43403 1-619): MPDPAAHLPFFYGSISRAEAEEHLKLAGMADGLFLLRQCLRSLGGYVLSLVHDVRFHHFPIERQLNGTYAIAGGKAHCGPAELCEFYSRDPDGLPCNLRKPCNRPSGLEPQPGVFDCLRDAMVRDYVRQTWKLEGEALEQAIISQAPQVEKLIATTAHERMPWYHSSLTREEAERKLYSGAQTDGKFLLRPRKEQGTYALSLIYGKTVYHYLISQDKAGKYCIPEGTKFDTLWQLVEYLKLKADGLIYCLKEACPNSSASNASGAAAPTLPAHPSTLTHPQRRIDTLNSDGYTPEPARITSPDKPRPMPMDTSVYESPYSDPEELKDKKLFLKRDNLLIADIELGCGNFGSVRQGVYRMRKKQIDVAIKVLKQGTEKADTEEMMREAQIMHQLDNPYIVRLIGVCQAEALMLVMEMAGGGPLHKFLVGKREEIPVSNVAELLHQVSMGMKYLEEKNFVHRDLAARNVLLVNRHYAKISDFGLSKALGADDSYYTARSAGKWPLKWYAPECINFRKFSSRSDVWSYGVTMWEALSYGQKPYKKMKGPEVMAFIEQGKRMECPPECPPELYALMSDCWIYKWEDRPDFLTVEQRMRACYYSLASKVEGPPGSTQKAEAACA

LYN, sequence (P07948 whole entry): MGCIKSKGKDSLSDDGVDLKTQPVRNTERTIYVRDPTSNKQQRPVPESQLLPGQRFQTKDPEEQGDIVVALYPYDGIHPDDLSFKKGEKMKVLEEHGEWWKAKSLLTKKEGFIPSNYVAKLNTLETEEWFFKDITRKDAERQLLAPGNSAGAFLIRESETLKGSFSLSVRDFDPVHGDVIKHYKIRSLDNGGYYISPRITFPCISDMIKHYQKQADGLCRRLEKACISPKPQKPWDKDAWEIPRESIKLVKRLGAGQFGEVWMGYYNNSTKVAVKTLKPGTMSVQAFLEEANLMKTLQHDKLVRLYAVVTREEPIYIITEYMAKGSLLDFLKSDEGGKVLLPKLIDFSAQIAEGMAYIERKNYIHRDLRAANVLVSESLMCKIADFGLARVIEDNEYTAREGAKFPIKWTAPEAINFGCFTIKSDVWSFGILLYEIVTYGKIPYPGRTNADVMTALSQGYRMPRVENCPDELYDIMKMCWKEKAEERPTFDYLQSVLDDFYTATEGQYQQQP
TLK2, sequence (Q86UE8 whole entry, the tested form may be a part): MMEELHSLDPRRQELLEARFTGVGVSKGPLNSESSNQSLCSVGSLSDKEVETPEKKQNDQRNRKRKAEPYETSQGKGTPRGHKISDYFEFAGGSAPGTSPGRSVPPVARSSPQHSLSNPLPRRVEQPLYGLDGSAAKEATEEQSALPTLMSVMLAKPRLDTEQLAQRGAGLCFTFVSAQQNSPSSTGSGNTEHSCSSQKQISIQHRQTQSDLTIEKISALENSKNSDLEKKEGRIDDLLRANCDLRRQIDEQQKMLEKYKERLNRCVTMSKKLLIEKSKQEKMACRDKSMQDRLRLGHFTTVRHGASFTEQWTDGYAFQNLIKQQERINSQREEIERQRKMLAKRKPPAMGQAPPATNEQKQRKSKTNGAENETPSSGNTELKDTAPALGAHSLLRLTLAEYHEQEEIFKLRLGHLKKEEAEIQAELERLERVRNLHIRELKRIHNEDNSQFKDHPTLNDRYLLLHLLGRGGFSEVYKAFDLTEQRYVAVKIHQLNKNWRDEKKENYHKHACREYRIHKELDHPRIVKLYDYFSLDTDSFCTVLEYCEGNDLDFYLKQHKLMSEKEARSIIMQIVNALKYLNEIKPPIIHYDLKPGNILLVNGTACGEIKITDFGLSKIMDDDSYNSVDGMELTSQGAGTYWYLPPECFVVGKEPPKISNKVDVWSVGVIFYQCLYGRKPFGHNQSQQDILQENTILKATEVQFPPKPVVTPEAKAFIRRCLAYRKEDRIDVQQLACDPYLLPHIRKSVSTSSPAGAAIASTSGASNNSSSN
T4 sequence (P29597 whole entry, the tested form may be a part): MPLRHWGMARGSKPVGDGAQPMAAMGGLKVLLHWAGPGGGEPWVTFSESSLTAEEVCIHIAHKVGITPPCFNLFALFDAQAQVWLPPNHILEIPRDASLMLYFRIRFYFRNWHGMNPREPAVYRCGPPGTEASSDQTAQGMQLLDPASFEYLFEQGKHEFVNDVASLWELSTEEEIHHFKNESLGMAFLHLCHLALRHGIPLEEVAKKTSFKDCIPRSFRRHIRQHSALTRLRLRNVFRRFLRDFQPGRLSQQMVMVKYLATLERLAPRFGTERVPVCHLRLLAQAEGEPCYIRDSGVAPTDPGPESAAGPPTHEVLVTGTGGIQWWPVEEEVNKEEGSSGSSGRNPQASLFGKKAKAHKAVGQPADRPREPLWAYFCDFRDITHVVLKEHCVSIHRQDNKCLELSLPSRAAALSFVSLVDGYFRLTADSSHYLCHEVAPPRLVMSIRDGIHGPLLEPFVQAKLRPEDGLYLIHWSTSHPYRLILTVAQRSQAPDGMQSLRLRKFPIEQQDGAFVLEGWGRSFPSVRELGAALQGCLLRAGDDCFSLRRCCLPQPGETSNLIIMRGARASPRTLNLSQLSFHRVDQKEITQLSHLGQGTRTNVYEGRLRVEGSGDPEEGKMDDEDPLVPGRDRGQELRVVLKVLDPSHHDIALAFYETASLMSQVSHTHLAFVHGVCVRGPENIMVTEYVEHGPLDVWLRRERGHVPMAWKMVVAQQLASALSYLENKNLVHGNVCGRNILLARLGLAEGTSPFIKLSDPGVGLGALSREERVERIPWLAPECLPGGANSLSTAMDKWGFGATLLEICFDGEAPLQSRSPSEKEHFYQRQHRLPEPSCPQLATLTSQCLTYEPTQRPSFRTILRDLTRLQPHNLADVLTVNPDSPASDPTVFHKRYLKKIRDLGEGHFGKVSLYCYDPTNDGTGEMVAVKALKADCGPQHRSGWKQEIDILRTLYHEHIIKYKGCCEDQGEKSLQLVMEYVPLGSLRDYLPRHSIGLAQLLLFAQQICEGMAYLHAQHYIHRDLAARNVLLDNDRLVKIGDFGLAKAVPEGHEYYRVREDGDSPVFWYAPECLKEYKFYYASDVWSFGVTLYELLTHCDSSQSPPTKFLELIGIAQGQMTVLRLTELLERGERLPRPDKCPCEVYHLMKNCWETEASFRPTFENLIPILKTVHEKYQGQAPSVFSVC
CDK5, sequence (Q00535 whole entry): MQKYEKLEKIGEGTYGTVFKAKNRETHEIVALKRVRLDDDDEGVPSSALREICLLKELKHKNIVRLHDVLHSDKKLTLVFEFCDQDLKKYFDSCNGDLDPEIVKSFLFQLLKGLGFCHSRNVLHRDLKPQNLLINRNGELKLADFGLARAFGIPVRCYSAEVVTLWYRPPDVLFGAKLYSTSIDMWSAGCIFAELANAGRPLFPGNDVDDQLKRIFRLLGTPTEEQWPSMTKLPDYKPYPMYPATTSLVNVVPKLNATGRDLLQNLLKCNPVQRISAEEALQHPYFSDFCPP
p70S6Kb, sequence (Q9UBS0 whole entry): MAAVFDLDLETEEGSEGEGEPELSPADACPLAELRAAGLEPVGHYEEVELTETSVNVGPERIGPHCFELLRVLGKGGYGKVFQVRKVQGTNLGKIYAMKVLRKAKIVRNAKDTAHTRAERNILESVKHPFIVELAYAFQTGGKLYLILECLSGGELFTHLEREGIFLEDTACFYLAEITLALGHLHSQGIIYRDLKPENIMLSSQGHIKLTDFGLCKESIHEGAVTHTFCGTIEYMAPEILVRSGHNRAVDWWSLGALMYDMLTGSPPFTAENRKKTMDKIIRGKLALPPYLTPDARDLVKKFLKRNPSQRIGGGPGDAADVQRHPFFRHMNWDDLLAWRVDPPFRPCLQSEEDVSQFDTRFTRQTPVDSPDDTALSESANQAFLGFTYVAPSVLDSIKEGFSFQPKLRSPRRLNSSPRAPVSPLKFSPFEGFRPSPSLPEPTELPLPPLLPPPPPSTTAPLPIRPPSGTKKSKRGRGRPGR
CCRK, sequence (Q8IZL9 whole entry): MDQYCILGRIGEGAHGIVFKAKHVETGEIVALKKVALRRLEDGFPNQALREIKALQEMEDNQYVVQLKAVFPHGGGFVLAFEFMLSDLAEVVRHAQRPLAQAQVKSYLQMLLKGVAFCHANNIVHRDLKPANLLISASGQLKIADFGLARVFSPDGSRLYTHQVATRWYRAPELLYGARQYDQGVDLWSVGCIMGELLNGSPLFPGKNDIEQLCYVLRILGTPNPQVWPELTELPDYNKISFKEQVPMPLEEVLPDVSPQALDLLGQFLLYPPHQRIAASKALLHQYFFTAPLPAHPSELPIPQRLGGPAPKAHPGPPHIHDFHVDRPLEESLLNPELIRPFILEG
MAP3K2, sequence (Q9Y2U5 whole entry): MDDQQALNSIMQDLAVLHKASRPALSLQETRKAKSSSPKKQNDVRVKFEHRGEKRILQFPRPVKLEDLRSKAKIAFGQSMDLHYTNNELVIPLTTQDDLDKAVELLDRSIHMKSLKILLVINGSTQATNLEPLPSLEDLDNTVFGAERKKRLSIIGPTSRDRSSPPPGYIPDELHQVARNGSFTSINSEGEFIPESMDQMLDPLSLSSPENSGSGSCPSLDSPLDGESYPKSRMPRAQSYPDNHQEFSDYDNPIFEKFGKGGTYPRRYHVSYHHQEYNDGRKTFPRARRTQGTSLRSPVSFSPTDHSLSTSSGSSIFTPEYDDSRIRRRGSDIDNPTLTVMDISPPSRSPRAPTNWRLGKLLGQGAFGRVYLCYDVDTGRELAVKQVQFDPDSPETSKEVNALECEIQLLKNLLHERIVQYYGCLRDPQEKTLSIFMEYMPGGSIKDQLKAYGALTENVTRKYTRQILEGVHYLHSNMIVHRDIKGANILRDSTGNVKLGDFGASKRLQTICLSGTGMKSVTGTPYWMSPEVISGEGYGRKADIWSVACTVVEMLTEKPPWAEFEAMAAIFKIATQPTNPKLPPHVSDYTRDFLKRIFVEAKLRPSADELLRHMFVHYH
T2 sequence (P29597 whole entry): as the sequence (P29597 whole entry, the tested form may be a part) above
BRAF, sequence (P15056 whole entry): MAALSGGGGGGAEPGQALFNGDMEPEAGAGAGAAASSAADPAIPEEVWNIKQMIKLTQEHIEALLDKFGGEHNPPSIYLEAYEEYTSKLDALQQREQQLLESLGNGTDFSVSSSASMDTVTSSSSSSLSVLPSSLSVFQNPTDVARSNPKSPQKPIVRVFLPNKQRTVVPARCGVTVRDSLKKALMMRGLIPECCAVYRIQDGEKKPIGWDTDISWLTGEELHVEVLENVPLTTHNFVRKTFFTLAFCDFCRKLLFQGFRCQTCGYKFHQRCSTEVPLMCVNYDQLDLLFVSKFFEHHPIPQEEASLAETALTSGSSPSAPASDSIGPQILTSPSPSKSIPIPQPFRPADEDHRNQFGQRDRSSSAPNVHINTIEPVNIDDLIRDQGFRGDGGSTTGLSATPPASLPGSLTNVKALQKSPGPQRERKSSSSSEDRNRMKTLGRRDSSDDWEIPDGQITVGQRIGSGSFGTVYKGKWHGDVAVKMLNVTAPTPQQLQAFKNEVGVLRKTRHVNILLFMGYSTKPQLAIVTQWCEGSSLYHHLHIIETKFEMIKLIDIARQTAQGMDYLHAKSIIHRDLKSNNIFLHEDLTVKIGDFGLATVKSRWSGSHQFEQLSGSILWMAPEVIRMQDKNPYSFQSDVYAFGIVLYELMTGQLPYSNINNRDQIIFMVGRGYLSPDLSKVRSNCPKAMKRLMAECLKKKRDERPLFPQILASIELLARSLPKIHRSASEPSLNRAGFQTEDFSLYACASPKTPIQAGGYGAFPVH

Structure (SMILES): CN1CCN(Cc2ccc(Nc3ncc(Cl)c(Nc4ccccc4S(=O)(=O)N(C)C)n3)cc2)CC1 [TP-0903]
- Kd (JAK3): < 5 nM
- Kd (TYK2): < 5 nM
- IC50 (OCI-AML3 cells): 37 nM
- Inhibition (AMPKa1, AMPKa2; labeling site Lys1, peptide VAVKILNR): 71.8%
- Inhibition (AMPKa1, AMPKa2; labeling site Lys2, peptide DLKPENVLLDAHMNAK): 75.1%
- Inhibition (AurA, AurB, AurC): 91.0%
- inhibition at 0.1 µM (AurB): 83%
- inhibition at 0.1 µM (BRAF): -3.1%
- inhibition at 0.1 µM (CCRK): 58.1%
- inhibition at 0.1 µM (CDK4): 24.3%
- inhibition at 0.1 µM (CDK5; labeling site Lys1, peptide NRETHEIVALKR): 57%
- inhibition at 0.1 µM (CDK5; labeling site Lys2, peptide DLKPQNLLINR): 55.5%
- Inhibition (CHED): 14.4%
- inhibition at 0.1 µM (IRAK2): -9.1%
- inhibition at 0.1 µM (LYN; labeling site Activation Loop, peptide EGAKFPIKWTAPEAINFGCFTIK): 19.1%
- inhibition at 0.1 µM (LYN; labeling site Lys1, peptide VAVKTLKPGTMSVQAFLEEANLMK): 17.6%
- inhibition at 0.1 µM (MAP3K2): 30.6%
- Inhibition (MAPKAPK2, MAPKAPK3): -42.8%
- inhibition at 0.1 µM (MAPKAPK3): -28.5%
- Inhibition [1]: 11.0%
- inhibition at 0.1 µM (p70S6Kb; labeling site Lys1, peptide IYAMKVLR): -2.8%
- inhibition at 0.1 µM (p70S6Kb; labeling site Lys2, peptide DLKPENIMLSSQGHIK): -18.3%
- inhibition at 0.1 µM (STLK5): -46.6%
- inhibition at 0.1 µM (TAO2): 73.7%
- inhibition at 0.1 µM (TLK2; labeling site Lys1, peptide YVAVKIHQLNK): -7.2%
- inhibition at 0.1 µM (TLK2; labeling site Lys2, peptide YLNEIKPPIIHYDLKPGNILLVNGTACGEIK): -3.1%
- Inhibition (TYK2 domain2; labeling site Activation Loop, peptide IGDFGLAKAVPEGHEYYR): -38.7%
- Inhibition (TYK2 domain2; labeling site Lys1, peptide VSLYCYDPTNDGTGEMVAVKALK): 21.1%
- inhibition at 0.1 µM (ZAP70; peptide ISDFGLSKALGADDSYYTAR): -29.4%
- inhibition at 0.1 µM (ZAP70; peptide […], read-out: Inhibition): -4%
